This passage reports melting point and IC50 results from patent US11077115B2, “Rorgamma modulators and uses thereof” (Genfit, priority 2017, dated 2021).

Counter-ions that a name gives are not always drawn. Some results are limits rather than exact numbers.

The target of one data set is T1, human RORγt (Homo sapiens, UniProt P51449).
T1 sequence (P51449 1-497 isoform P51449-2): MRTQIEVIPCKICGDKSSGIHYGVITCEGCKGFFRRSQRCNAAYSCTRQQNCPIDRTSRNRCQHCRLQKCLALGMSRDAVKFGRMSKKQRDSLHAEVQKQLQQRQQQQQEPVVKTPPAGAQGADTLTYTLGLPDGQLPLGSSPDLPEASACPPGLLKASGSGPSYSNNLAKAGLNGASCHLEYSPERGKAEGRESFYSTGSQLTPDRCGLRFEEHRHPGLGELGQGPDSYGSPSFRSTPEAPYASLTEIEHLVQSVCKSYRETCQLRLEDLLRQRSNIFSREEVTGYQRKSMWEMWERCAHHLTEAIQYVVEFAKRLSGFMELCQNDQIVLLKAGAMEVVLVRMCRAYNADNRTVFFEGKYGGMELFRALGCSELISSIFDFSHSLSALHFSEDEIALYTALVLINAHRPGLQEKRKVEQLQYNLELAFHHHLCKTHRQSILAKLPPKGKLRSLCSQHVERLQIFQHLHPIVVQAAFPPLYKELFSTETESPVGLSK
Kind of data set: RORE Luciferase/RORγt transactivation assay (IL-17 promoter luciferase reporter in COS-7 cells). On the set-up: V5-His (named only through the vector pcDNA3.1D/V5-His-TOPO); expressed in transfected cells; host or cells: COS-7 (monkey kidney). Type of data set: cell-based. The conditions noted are these: RORγt activity inhibition, luciferase activity in transfected COS-7 cells, 20 h. The procedure:
It is well known that RORγ binds to a conserved non-coding sequence (CNS) enhancer element in the IL-17 promoter.
Culture medium was changed every 2 days.
The 4.3 Kb human IL-17 promoter containing the RORγ-specific CNS enhancer element was PCR amplified from human genomic DNA and cloned into a pGL3-TKLuc2Cp reporter plasmid.
The luciferase reporter plasmid and the RORγt overexpression plasmid were transfected into COS-7 cell line using 4 μL JetPEI™/μg of DNA. Briefly, 150 ng of DNA (ration 1/2 between RORE-Tk Luc2Cp and cDNA RORγt or the empty vector for the negative control) was served to transfect adherent COS-7 cells in a […] culture flask, in complete medium (see cos-7 cell line culture).
Cells were then detached (using trypsin) and washed by centrifugation at 300 g for 10 minutes. Cell pellet was resuspended in serum free/phenol red free DMEM and seeded in 384 well plates at a density of 10000 cells/well and then incubated for 4 h at 37° C.
Compounds were dissolved in 100% DMSO to obtain 10 mM stock solutions. For each compound, test concentrations were diluted in serum free/phenol red free DMEM using the Genesis Freedom 200™ (TECAN) and added to the cells to obtain a 0.3% DMSO final concentration (in a final volume of 40 μL per well).
The luciferase activity was then measured with 40 μL/well steady-Glo Luciferase assay system (Promega, Madison, Wis.) and after incubation at room temperature for 30 minutes. The luminescence was estimated using the Ultra384 reader (TECAN). Data were collected and analyzed using GraphPad Prism software (GraphPad Software V5.02, San Diego Calif. USA). IC50 in μM and E max in % were reported for each compound.
On the technique in general: In a reporter assay the amount or activity of a reporter protein is the signal.

The target of data set [1] is T2, RORγt ligand-binding domain (RORγt-LBD) (Homo sapiens, UniProt P51449).
T2 construct: 20 nM recombinantly expressed RORγ-LBD fused to GST
T2 sequence (P51449 269-508 limits assumed): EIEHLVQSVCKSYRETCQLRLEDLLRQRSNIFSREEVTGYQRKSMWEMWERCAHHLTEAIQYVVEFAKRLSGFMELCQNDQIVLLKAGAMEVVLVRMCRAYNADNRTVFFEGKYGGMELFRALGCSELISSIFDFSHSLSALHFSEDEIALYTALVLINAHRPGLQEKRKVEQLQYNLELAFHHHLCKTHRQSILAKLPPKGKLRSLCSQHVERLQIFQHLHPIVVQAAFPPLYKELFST
Put plainly: Time-resolved FRET (TR-FRET) RORγt coactivator assay (RIP140 peptide displacement). Type of data set: biochemical. The conditions noted are these: ligand-dependent coactivator-RORγt binding. From the text:
Time-resolved FRET (TR-FRET) RORγt coactivator assay was used to identify RORγ modulator compounds with ligand-dependent coactivator displacement. The assay uses a d2-labeled anti-GST antibody, synthetic N-terminally biotinylated peptide which is derived from nuclear receptor coactivator protein RIP140, and a RORγt ligand-binding domain (RORγt-LBD) that is tagged with glutathione-S-transferase (GST). The influence of compounds on the RORγ-peptide interaction relies on the binding dependent energy transfer from a donor to an acceptor fluorophor attached to the binding partner of interest. […] For reduction of background from compound fluorescence, TR-FRET method makes use of generic fluorophore labels and time resolved detection.
The assays were done in a final volume of 20 μl in a 384 well plate in a CHAPS buffer (2 mM CHAPS; 1 mM DTT, 2 mM EDTA; 0.1% BSA), containing 20 nM recombinantly expressed RORγ-LBD fused to GST, 30 nM N-terminally biotinylated peptide, 1 nM streptavidin-terbium conjugate and 20 nM d2 labeled-anti-GST. Test compounds were diluted using 10 mM stock solution. The range of the final compound concentrations used in this test was from 0.3 nM to 30 μM (logarithmic scale). DMSO content of the samples was kept at 1%. The assay was equilibrated for 2 hours in the dark at room temperature in 384 well plates (Falcon). The signal was detected by an Ultra384 reader (TECAN). […] Compounds that promote coactivator displacement induce a concentration-dependent decrease in time-resolved fluorescent signal. Data were collected and analyzed using GraphPad Prism software (GraphPad Software V5.02, San Diego Calif. USA). IC50 in μM and E max in % were reported for each compound.

The molecule `Cc1ccc(C(NC(=O)C2(c3ccc(N4CCS(=O)(=O)CC4)cn3)CC2)c2ccc(C)o2)c(C)c1` (centres unmarked) (as salt: HCl) [Cpd. 73, N-[(2,4-dimethylphenyl)(5-methylfuran-2-yl)methyl]-1-[5-(1,1-dioxo-1-thiomorpholin-4-yl)pyridin-2-yl]cyclopropane-1-carboxamide] showed a melting point of 71 °C.

For `Cc1ccc(N2CCS(=O)(=O)CC2)cc1CC(=O)NC(c1ccccc1)c1ccccc1N1CCCCC1` (centres unmarked) [Cpd. 2, 2-[5-(1,1-dioxo-1-thiomorpholin-4-yl)-2-methylphenyl]-N-{phenyl[2-(piperidin-1-yl)phenyl]methyl}acetamide], the IC50 (against human RORγt; in data set [1]) was 1 to 10 µM throughout.

With `Cc1ccc(C(NC(=O)Cc2cc(N3CCS(=O)(=O)CC3)ccc2F)c2ccccc2)c(N2CCOCC2)c1` (centres unmarked) [Cpd. 4, 2-[5-(1,1-dioxo-1-thiomorpholin-4-yl)-2-fluorophenyl]-N-{[4-methyl-2-(morpholin-4-yl)phenyl](phenyl)methyl}acetamide], the half-inhibitory concentration (IC50) was 1 to 10 µM at human RORγt and 0.1 to 1 µM in data set [1].

`Cc1ccc(C(NC(=O)Cc2cc(N3CCS(=O)(=O)CC3)ccc2C)c2ccccc2)c(N2CCOCC2)c1` (centres unmarked) [Cpd. 7, 2-[5-(1,1-dioxo-1-thiomorpholin-4-yl)-2-methylphenyl]-N-{[4-methyl-2-(morpholin-4-yl)phenyl](phenyl)methyl}acetamide]: the IC50 on human RORγt was 1 to 10 µM; in data set [1] it was 0.1 to 1 µM.

In the case of `Cc1ccc(C(NC(=O)Cc2cc(N3CCOCC3)ccc2F)c2ccccc2)c(N2CCCCC2)c1` (centres unmarked) [Cpd. 8, 2-[2-fluoro-5-(morpholin-4-yl)phenyl]-N-{[4-methyl-2-(piperidin-1-yl)phenyl](phenyl)methyl}acetamide], the results for the IC50 (at human RORγt; in data set [1]) were 1 to 10 µM and 0.1 to 1 µM, respectively.

For the molecule `COc1ccc(C(NC(=O)Cc2ccc(N3CCS(=O)(=O)CC3)c(C)c2)c2ccc(C)o2)c(N2CCC(C(F)(F)F)CC2)c1` (centres unmarked) [Cpd. 14, 2-[4-(1,1-dioxo-1-thiomorpholin-4-yl)-3-methylphenyl]-N-({4-methoxy-2-[4-(trifluoromethyl)piperidin-1-yl]phenyl}(5-methylfuran-2-yl)methyl)acetamide], the IC50 (at human RORγt; in data set [1]) was 0.1 to 1 µM in each case.

As for `Cc1ccc(N2CCCCC2)c(C(NC(=O)Cc2cnc(N3CCS(=O)(=O)CC3)nc2)c2ccc(C)o2)c1` (centres unmarked) [Cpd. 17, 2-[2-(1,1-dioxo-1-thiomorpholin-4-yl)pyrimidin-5-yl]-N-{[5-methyl-2-(piperidin-1-yl)phenyl](5-methylfuran-2-yl)methyl}acetamide], the figures for the IC50 (against human RORγt; in data set [1]) were 1 to 10 µM and 0.1 to 1 µM, respectively.

Take `Cc1ccc(C(NC(=O)Cc2ccc(N3CCS(=O)(=O)CC3)cc2)c2ccc(C)o2)c(C(F)(F)F)c1` (centres unmarked) [Cpd. 24, 2-[4-(1,1-dioxo-1-thiomorpholin-4-yl)phenyl]-N-{[4-methyl-2-(trifluoromethyl)phenyl](5-methylfuran-2-yl)methyl}acetamide]: the concentration for half-maximal inhibition (IC50) lay in the range of 1 to 10 µM against human RORγt and 0.1 to 1 µM in data set [1].

Regarding `Cc1ccc(C(NC(=O)Cc2cnc(N3CCOCC3)nc2)c2ccc(C)o2)c(N2CCCCC2)c1` (centres unmarked) [Cpd. 26, N-{[4-methyl-2-(piperidin-1-yl)phenyl](5-methylfuran-2-yl)methyl}-2-[2-(morpholin-4-yl)pyrimidin-5-yl]acetamide], the figures for the IC50 (on human RORγt; in data set [1]) were 0.1 to 1 µM and under 1 µM, respectively.

In the case of `COc1cc(CC(=O)NC(c2ccc(C)o2)c2ccc(C)cc2N2CCCCC2)ccc1N1CCS(=O)(=O)CC1` (centres unmarked) [Cpd. 29, 2-[4-(1,1-dioxo-1-thiomorpholin-4-yl)-3-methoxyphenyl]-N-{[4-methyl-2-(piperidin-1-yl)phenyl](5-methylfuran-2-yl)methyl}acetamide], the values for the IC50 (at human RORγt; in data set [1]) were 0.1 to 1 µM and under 1 µM, respectively.

Turning to `COc1ccc(CC(=O)NC(c2ccc(C)o2)c2ccc(C)cc2N2CCCCC2)cc1N1CCS(=O)(=O)CC1` (centres unmarked) [Cpd. 30, 2-[3-(1,1-dioxo-1-thiomorpholin-4-yl)-4-methoxyphenyl]-N-{[4-methyl-2-(piperidin-1-yl)phenyl](5-methylfuran-2-yl)methyl}acetamide], the half-inhibitory concentration (IC50) (against human RORγt; in data set [1]) was 0.1 to 1 µM throughout.

On to `Cc1ccc(C(NC(=O)Cc2cnc(N3CCS(=O)(=O)CC3)nc2)c2ccc(C)o2)c(Br)c1` (centres unmarked) [Cpd. 34, N-[(2-bromo-4-methylphenyl)(5-methylfuran-2-yl)methyl]-2-[2-(1,1-dioxo-1-thiomorpholin-4-yl)pyrimidin-5-yl]acetamide], for which the IC50 (against human RORγt; in data set [1]) was 0.1 to 1 µM in each case.

For the molecule `Cc1ccc(C(NC(=O)Cc2cnc(N3CCS(=O)(=O)CC3)nc2)c2ccc(C)o2)c(C)c1` (centres unmarked) [Cpd. 35, N-[(2,4-dimethylphenyl)(5-methylfuran-2-yl)methyl]-2-[2-(1,1-dioxo-1-thiomorpholin-4-yl)pyrimidin-5-yl]acetamide], the IC50 was in the range of 1 to 10 µM against human RORγt and 0.1 to 1 µM in data set [1].

On to `Cc1ccc(C(NC(=O)Cc2cnc(N3CCS(=O)(=O)CC3)nc2)c2ccc(C)o2)c(N2CC3CC3C2)c1` (centres unmarked) [Cpd. 36, N-[(2-{3-azabicyclo[3.1.0]hexan-3-yl}-4-methylphenyl)(5-methylfuran-2-yl)methyl]-2-[2-(1,1-dioxo-1-thiomorpholin-4-yl)pyrimidin-5-yl]acetamide], for which the values for the 50% inhibitory concentration (IC50) (against human RORγt; in data set [1]) were 0.1 to 1 µM and under 1 µM, respectively.

Turning to `Cc1ccc(C(NC(=O)C2(c3ccc(N4CCS(=O)(=O)CC4)c(Br)c3)CC2)c2ccc(C)o2)c(N2CCCCC2)c1` (centres unmarked) [Cpd. 37, 1-[3-bromo-4-(1,1-dioxo-1-thiomorpholin-4-yl)phenyl]-N-{[4-methyl-2-(piperidin-1-yl)phenyl](5-methylfuran-2-yl)methyl}cyclopropane-1-carboxamide], the IC50 was under 0.1 µM against human RORγt and 0.1 to 1 µM in data set [1].

Take `Cc1ccc(C(NC(=O)C(C)(C)c2ccc(N3CCS(=O)(=O)CC3)cc2)c2ccc(C)o2)c(C)c1` (centres unmarked) [Cpd. 40, N-[(2,4-dimethylphenyl)(5-methylfuran-2-yl)methyl]-2-[4-(1,1-dioxo-1-thiomorpholin-4-yl)phenyl]-2-methylpropanamide]: the concentration for half-maximal inhibition (IC50) against human RORγt is 0.1 to 1 µM; in data set [1], under 1 µM.

As for `Cc1ccc(C(NC(=O)Cc2cnc(N3CCS(=O)(=O)CC3)nc2)c2ccc(C)o2)c(Cl)c1` (centres unmarked) [Cpd. 51, N-[(2-chloro-4-methylphenyl)(5-methylfuran-2-yl)methyl]-2-[2-(1,1-dioxo-1-thiomorpholin-4-yl)pyrimidin-5-yl]acetamide], in data set [1], the IC50 was 1 to 10 µM.

By melting point is commonly meant the temperature of the solid-liquid transition. Usually IC50 stands for the point on the concentration scale where inhibition reaches its midpoint.
